Structures are written as SMILES. Read-outs that look alike come from different tables or passages of the source.

In this assay the target is Recombinant Btk (Homo sapiens (Human), UniProt Q06187). Nature of the assay: BTK kinase assay (TR-FRET). The note with it: 1 hour pre-incubation, ATP at Km. In general terms: Time-resolved FRET reads energy transfer from a long-lived donor to a nearby acceptor.
Chain of Recombinant Btk (Q06187 whole entry): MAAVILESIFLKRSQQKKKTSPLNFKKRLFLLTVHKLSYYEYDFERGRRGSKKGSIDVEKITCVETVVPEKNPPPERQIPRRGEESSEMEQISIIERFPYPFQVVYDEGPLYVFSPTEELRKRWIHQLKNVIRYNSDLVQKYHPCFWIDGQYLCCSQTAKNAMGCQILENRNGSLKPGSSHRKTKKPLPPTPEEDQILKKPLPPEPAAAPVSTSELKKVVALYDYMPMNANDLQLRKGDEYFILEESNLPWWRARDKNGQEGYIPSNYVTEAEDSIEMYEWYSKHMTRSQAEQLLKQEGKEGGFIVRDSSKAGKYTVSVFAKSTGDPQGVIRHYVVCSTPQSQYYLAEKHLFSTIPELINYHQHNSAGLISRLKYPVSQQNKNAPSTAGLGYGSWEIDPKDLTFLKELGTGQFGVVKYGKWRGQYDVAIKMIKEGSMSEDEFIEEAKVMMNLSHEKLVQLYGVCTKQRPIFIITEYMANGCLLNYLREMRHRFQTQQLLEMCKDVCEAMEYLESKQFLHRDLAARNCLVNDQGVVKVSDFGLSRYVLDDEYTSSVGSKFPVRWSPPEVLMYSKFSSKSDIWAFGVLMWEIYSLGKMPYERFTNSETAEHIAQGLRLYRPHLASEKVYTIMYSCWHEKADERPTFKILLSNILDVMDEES

Turning to `NC(=O)c1c(-c2ccc(Oc3ccccc3)cc2)nn2c1NC[C@H]1CNC[C@H]12` (relative stereo) [Compound 115], the IC50 (read-out: IC50 (nM) Btk) worked out at 8200 nM.
As for `C=CC(=O)Nc1ccccc1C1CCNc2c(C(N)=O)c(-c3ccc(OCc4ccccc4)cc3)nn21` (single isomer, unassigned) [Compound 10b], the half-inhibitory concentration (IC50) (IC50 (nM) Btk) came out at 42 nM.
Take `C=CC(=O)N1CCC2[C@H](CNc3c(C(N)=O)c(-c4ccc(Oc5ccccc5)cc4)nn32)C1` (single isomer, unassigned) [Compound 30b]: the IC50 (read-out: IC50 (nM) Btk) amounted to 16 nM.
Still for that read-out and setting: in the case of `CC(C)(C)OC(=O)N1CC2[C@@H](CNc3c(C(N)=O)c(-c4ccc(Oc5ccccc5)cc4)nn32)C1` (single isomer, unassigned) [Compound 114, Cis-7-(1-tert-Butoxycarbonyl)-2-(4-phenoxyphenyl)-5,5a,6,7,8,8a-hexahydro-4H-pyrazolo[1,5-a]pyrrolo[3,4-e]pyrimidine-3-carboxamide] it was 6000 nM; in that of `N#Cc1c(-c2ccc(Oc3ccccc3)cc2)nn2c(-c3cccc(N)c3)ccnc12` [Compound 1, 7-(3-Aminophenyl)-2-(4-phenoxyphenyl)pyrazolo[1,5-a]pyrimidine-3-carbonitrile], above 10000 nM; in that of `NC(=O)c1c(-c2ccc(Oc3ccccc3)cc2)nn2c1NCCC2c1cccc(N)c1` (centres unmarked) [Compound 2, 7-(3-Aminophenyl)-2-(4-phenoxyphenyl)-4,5,6,7-tetrahydropyrazolo [1,5-a]pyrimidine-3-carboxamide], 360 nM.
Take `NC(=O)c1c(-c2ccc(Oc3ccccc3)cc2)nn2c(-c3cccc(N)c3)ccnc12` [Compound 7, 7-(3-Aminophenyl)-2-(4-phenoxyphenyl)pyrazolo[1,5-a]pyrimidine-3-carboxamide]: where the note is “read-out: IC50 (nM) Btk”, the IC50 is above 10000 nM.
Regarding `NC(=O)c1c(-c2ccc(OCc3ccccc3)cc2)nn2c1NCCC2c1ccccc1N` (centres unmarked) [Compound 9, 7-(2-Aminophenyl)-2-(4-(benzyloxy)phenyl)-4,5,6,7-tetrahydro pyrazolo[1,5-a]pyrimidine-3-carboxamide], the IC50 (read-out: IC50 (nM) Btk) turned out to be 3700 nM.
For the molecule `NC(=O)c1c(-c2ccc(Oc3ccc(F)cc3)cc2)nn2c1NCCC2c1ccccc1N` (centres unmarked) [Compound 11, 7-(2-Aminophenyl)-2-(4-(4-fluorophenoxy)phenyl)-4,5,6,7-tetrahydro pyrazolo[1,5-a]pyrimidine-3-carboxamide], the IC50 (read-out: IC50 (nM) Btk) came to 4500 nM.
For `C=CC(=O)Nc1ccccc1C1CCNc2c(C(N)=O)c(-c3ccc(Oc4ccc(F)cc4)cc3)nn21` (centres unmarked) [Compound 12, 7-(2-Acrylamidophenyl)-2-(4-(4-fluorophenoxy)phenyl)-4,5,6,7-tetrahydropyrazolo[1,5-a]pyrimidine-3-carboxamide], the IC50 (read-out: IC50 (nM) Btk) stood at 1.7 nM.
For `CNc1ccccc1C1CCNc2c(C(N)=O)c(-c3ccc(Oc4ccc(F)cc4)cc3)nn21` (centres unmarked) [Compound 15, 2-(4-(4-Fluorophenoxy)phenyl)-7-(2-(methylamino)phenyl)-4,5,6,7-tetrahydropyrazolo[1,5-a]pyrimidine-3-carboxamide], the IC50 (read-out: IC50 (nM) Btk) stood at 2700 nM.
Same read-out and setting: for `C=CC(=O)N(C)c1ccccc1C1CCNc2c(C(N)=O)c(-c3ccc(Oc4ccc(F)cc4)cc3)nn21` (centres unmarked) [Compound 16, 2-(4-(4-Fluorophenoxy)phenyl)-7-(2-(N-methylacrylamido)phenyl)-4,5,6,7-tetrahydropyrazolo[1,5-a]pyrimidine-3-carboxamide] the value was 19 nM; for `NC(=O)c1c(-c2ccc(OC3CCCC3)cc2)nn2c1NCCC2c1ccccc1N` (centres unmarked) [Compound 17, 7-(2-Aminophenyl)-2-(4-(cyclopentyloxy)phenyl)-4,5,6,7-tetrahydro pyrazolo[1,5-a]pyrimidine-3-carboxamide], above 10000 nM.
The same measure, in the same setting: in the case of `NC(=O)c1c(-c2ccc(OCC3CC3)cc2)nn2c1NCCC2c1ccccc1N` (centres unmarked) [Compound 19, 7-(2-Aminophenyl)-2-(4-(cyclopropylmethoxy)phenyl)-4,5,6,7-tetrahydropyrazolo[1,5-a]pyrimidine-3-carboxamide] it was 5300 nM.

The term IC50 denotes the concentration at which inhibition is half-maximal.

These data come from patent US20250340560A1, “SUBSTITUTED PYRAZOLO[1,5-a]PYRIMIDINES AS BRUTON'S TYROSINE KINASE MODULATORS” (BEIGENE SWITZERLAND GMBH, priority 2013, published 2025).
